Data from patent US11267836B2, “Methods for producing ferric maltol compositions from ligand modified and ligand coated ferric hydroxides” (Shield TX (UK) Limited, priority 2016, dated 2022).

Key:
[1] = Dissolution in ethanol (check for ferric hydroxide in ferric trimaltol); conditions: for dissolution of ferric trimaltol powder in ethanol: powders produced as per Examples 1 and 2 dissolved in ethanol, complete dissolution confirms absence of iron hydroxides
Method: As such ferric trimaltol powders produced as per Examples 1 and 2 were dissolved in ethanol.

[2] = in vivo; cited from earlier work
[3] = tested on: IBD patients; conditions: in vivo; cited from earlier work

Row | SMILES | dissolution of ferric trimaltol powder in ethanol [1] | solubility in ethanol [1] | absorption [2] | tolerability [3]
1 | Cc1occc(=O)c1[O-].Cc1occc(=O)c1[O-].Cc1occc(=O)c1[O-].[Fe+3] [Example 1] | did not | – | – | –
2 | Cc1occc(=O)c1[O-].Cc1occc(=O)c1[O-].Cc1occc(=O)c1[O-].[Fe+3] [Example 2] | dissolved completely | – | – | –
3 | Cc1occc(=O)c1[O-].Cc1occc(=O)c1[O-].Cc1occc(=O)c1[O-].[Fe+3] [Ferric trimaltol, ferric trimaltol] | – | soluble in ethanol | well absorbed | well tolerated
